# Reference: patent US20240351965A1, “Synthesis and Evaluation of Novel (4-Hydroxyphenyl) Substituted Carbocycles as Potent and Selective Estrogen Receptor Beta Agonists” (Marquette University, priority 2021, published 2024)
# Read-outs that look alike come from different tables or passages of the source.
# Tests used:
# CYP3A4 = biological target: T1, CYP3A4 (Homo sapiens, UniProt P08684); assay: Cytochrome P450 inhibition (P450-Glo), CYP3A4; type: in vitro ADME
# T1 construct: purchased Promega (P450-Glo Screening Systems)
# Protocol: (§1) A screen of Cytochrome p450 inhibition was performed using the Promega P450-Glo™ Screening Systems. The Screening Systems' manual instructions were followed for CYP2C9, CYP2D6, or CYP3A4 enzymes with Luciferin-H, Luciferin-ME EGE or Luciferin-PPXE as substrates, respectively. The components of the kits, i.e., membrane enzymes, control enzymes, substrates and potassium phosphate buffer and or TRIS buffer were combined according to the System-manual's recommended final concentrations. Reactions were pre-incubated in white 96-well flat-bottom plates at 37° C. for 10 min before starting reactions with 2×NADPH regeneration buffer. The 96-well plates were incubated according to the recommended times in the linear range for each enzyme/substrate reaction. The reactions were stopped using 2× Luciferin Detection Reagent. After 20 minutes, the luciferase product was detected using a SpectraMax M5 Molecular Devices plate reader on the end-point luminescence setting. Positive control inhibitors for CYP2C9, CYP2D6, and CYP3A4 enzymes were assayed at a final concentration of 10 μM sulfaphenazole, 1 μM quinidine and 5 μM ketoconazole, respectively. Serial dilutions of 5a/b and (±)-11 were assayed at final concentrations of […], 7.812, 3.906, 1.953, 0.977, 0.488 μM. Inhibition data were analyzed using GraphPad Prism® 6 for Windows, ver. 6.07 (Jun. 12, 2015) software. Raw data were normalized against the control enzyme and untreated CYP enzyme means and then analyzed through non-linear regression using log (inhibitor) vs normalized dose-response curves to assess IC50s. Standard deviations were calculated from Best-fit values. Data were normalized to vehicle and positive controls (sulfaphenazole for CYP2C9, quinidine for CYP2D6, and ketoconazole for CYP3A4) and nonlinear square fits of the data were conducted using Prism 6 (GraphPad).
# CYP2D6 = biological target: T2, CYP2D6 (Homo sapiens, UniProt P10635); assay: Cytochrome P450 inhibition (P450-Glo), CYP2D6; type: in vitro ADME
# T2 construct: purchased Promega (P450-Glo Screening Systems)
# Protocol: as §1
# CYP2C9 = biological target: T3, CYP2C9 (Homo sapiens, UniProt P11712); assay: Cytochrome P450 inhibition (P450-Glo), CYP2C9; type: in vitro ADME; conditions: for IC50: tested up to 62.5 μM
# T3 construct: purchased Promega (P450-Glo Screening Systems)
# Protocol: as §1
# ERβ [1] = biological target: T4, ERβ (Homo sapiens, UniProt Q92731); conditions: cited from earlier work
# Target sequence in this assay (Q92731 whole entry): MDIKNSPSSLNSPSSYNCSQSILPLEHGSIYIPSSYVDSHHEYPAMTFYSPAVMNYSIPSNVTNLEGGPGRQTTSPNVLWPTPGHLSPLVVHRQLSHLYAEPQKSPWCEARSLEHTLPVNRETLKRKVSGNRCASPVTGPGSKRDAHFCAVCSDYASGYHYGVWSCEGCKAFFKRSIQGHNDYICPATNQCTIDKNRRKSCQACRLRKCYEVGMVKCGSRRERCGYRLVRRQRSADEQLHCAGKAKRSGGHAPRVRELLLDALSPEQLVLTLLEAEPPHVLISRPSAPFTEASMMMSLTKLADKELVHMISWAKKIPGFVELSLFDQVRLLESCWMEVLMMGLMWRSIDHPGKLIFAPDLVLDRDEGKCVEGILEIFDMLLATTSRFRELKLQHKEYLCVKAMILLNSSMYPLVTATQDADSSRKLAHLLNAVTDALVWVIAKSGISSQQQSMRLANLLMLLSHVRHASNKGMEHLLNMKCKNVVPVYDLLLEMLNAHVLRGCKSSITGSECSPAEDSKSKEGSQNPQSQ
# ERβ [2] = biological target: T4, ERβ; assay: TR-FRET ligand binding displacement assay (LanthaScreen)
# Target sequence in this assay (Q92731 264-498 limits assumed): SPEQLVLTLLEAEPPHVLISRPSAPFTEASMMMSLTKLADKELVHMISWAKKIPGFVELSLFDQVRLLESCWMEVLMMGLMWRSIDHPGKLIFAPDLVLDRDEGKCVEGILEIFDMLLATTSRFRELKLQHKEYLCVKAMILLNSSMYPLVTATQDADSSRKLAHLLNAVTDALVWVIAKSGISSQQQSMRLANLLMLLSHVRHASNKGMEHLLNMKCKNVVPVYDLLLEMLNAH
# ERβ [3] = biological target: T4, ERβ; assay: TR-FRET coactivator binding (recruitment) assay; type: biochemical
# Target sequence in this assay (Q92731 264-498 limits assumed): as above
# [4] = human, probe Luciferin-PPXE, read-out: CYP3A4 inhibition: not inhibited at concentrations up to (abstract)
# [5] = read-out: CYP3A4 inhibition: no inhibition up to
# [6] = human, probe Luciferin-ME EGE, read-out: CYP2D6 inhibition: not inhibited at concentrations up to (abstract)
# [7] = read-out: CYP2D6 inhibition: no inhibition up to
# T3 sequence (P11712 whole entry): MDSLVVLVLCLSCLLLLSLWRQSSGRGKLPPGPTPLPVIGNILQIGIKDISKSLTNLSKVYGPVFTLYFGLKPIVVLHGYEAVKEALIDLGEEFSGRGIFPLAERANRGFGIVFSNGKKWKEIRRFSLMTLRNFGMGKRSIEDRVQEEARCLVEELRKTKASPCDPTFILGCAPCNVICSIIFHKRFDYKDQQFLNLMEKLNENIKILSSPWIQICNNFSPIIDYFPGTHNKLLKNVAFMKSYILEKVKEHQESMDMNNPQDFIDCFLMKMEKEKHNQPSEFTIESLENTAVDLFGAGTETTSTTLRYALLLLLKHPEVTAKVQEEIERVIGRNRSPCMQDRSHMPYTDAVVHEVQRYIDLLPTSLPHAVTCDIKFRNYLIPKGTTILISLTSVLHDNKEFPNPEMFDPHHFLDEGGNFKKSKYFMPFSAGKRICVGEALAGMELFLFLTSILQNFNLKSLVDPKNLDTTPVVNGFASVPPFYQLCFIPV
# T1 sequence (P08684 whole entry): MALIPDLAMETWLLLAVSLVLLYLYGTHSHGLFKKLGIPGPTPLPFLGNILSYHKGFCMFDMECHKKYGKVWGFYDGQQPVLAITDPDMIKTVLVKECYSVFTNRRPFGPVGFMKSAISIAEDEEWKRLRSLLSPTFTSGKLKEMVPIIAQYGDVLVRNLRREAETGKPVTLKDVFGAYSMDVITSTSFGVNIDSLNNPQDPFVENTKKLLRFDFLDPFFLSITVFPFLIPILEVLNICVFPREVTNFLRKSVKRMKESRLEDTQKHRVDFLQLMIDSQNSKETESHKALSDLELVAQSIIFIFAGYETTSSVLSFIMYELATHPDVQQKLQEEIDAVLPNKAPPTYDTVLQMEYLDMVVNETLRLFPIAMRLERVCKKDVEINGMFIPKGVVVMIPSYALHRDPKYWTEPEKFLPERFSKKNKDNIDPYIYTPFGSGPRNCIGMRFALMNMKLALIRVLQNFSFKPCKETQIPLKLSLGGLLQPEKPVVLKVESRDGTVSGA
# T2 sequence (P10635 whole entry): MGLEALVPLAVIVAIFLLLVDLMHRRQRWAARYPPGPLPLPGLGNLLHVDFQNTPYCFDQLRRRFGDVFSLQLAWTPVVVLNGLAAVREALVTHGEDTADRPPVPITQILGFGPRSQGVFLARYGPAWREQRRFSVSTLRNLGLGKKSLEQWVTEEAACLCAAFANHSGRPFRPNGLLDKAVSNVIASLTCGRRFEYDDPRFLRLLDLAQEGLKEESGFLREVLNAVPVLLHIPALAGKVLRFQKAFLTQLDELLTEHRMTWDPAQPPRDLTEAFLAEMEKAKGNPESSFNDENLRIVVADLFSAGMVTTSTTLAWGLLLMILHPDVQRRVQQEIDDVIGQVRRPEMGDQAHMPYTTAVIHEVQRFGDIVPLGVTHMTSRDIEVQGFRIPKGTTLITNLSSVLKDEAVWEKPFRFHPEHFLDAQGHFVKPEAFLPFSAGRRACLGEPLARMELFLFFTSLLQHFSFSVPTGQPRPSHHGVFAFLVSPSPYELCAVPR
Compound,CYP3A4 binding in enzyme kinetic inhibition assay (CYP3A4),IC50 (CYP3A4; [4]) [µM],IC50 (CYP3A4; [5]) [µM],CYP2D6 binding in enzyme kinetic inhibition assay (CYP2D6),IC50 (CYP2D6; [6]) [µM],IC50 (CYP2D6; [7]) [µM],CYP2C9 binding in enzyme kinetic inhibition assay (CYP2C9),IC50 (CYP2C9) [µM],ERβ selectivity (literature) (ERβ [1]) [fold],"EC50 (ERβ [1]; read-out: EC50 (literature, ERβ agonist)) [µM]",IC50 (ERβ [2]) [µM],IC50 (ERβ [3]) [µM]
"Oc1ccc(C2CCC3(CC2)CC(O)C3)cc1 (racemic) [(±)-11, 7-(4-hydroxyphenyl)spiro[3.5]nonan-2-ol]",does not bind to any of these CYP450 enzymes with significant activity,> 62.5,> 62.5,does not bind to any of these CYP450 enzymes with significant activity,> 62.5,> 62.5,does not bind to any of these CYP450 enzymes with significant activity,> 62.5,,,,
OCC1CCCC(c2ccc(O)cc2)CC1 (stereo not shown) [ISP163],,,,,,,,,318,0.033 ± 0.005,,
"OCC12CC3CC(C1)C(c1ccc(O)cc1)C(C3)C2 (stereo not shown) [5a/b, 4-(4-Hydroxyphenyl)tricyclo[3.3.1.1^3,7]decane-1-methanol]",weak binding only to CYP2C9,> 62.5,> 62.5,weak binding only to CYP2C9,> 62.5,> 62.5,,10 ± 0.5,,,,
"O=C1CC2(CCC(c3ccc(O)cc3)CC2)C1 [compound 10, 7-(4-Hydroxyphenyl)spiro[3.5]nonan-2-one]",,,,,,,,,,,2.22 ± 2.66,1.64 ± 0.301
